These results are taken from patent EP1382341A1, “Use of compositions comprising glycyrrhetinic acid and benzoyl peroxide for acne treatment” (Cognis Iberia, S.L., priority 2002, dated 2004).

≈ marks a conversion by molar mass, not a printed value. Like-named read-outs stand apart in the source and are kept apart here. Some results are limits rather than exact numbers.

Common to all, as to format: cell-based
Test [1] relates to Staphylococcus epidermidis. Briefly: Agar diffusion method (inhibition zones). As to conditions: diameter of inhibition zone; Mueller-Hinton agar; filter paper with 20 µl test substance; 18 to 24 at 37 °C. From the text: (§1) Die antibakterielle Wirksamkeit der Wirkstoffe und Wirkstoffinischungen wurde mit Hilfe der Diffusionsmethode auf Agar-Platten bzw. der Agar-Verdünnungsmethode untersucht. Dabei wird zunächst ein rundes Filterpapier definierten Durchmessers mit der Testlösung getränkt und dieses dann auf die Oberfläche einer Agarplatte aufgebracht, welche zuvor mit den Testmikroorganismen inokuliert worden war. Anschließend wird nach definierten Zeiten die Größe der Inhibierungszonen bestimmt. Diese Technik erlaubt es insbesondere die MIC (Minimum Inhibitory Concentration) als die niedrigste Testsubstanzkonzentration zu bestimmen, mit der noch eine vollständige Inhibierung der Mikroorganismen erzielt werden kann.
(§2) Agar-Diffusionsmethode. Das Inokulum wurde unter Verwendung einer frischen Kultur in einer stationären Wachstumsphase (nach ca. 18-24 h) in einer BHI-Lösung (Brain-Heart-InfüsionI) hergestellt. Die Bakteriensuspension wurde auf 0,5 MacFarland-Einheiten eingestellt, entsprechend 1,5 10^8 Kolonienbildende Einheiten (cfu)/ml; anschließend wurde die Suspension mit einer Kochsalzlösung 1/100 verdünnt, um einen Wert von 1,5 10^6 cfu/ml einzustellen. Anschließend wurde Mueller-Hinton Agar (Staphylococcus epidermis, Staphylococcus aureus) und Wilkins-Chalgrens Agar mit 5 Gew.-% Schafsblut (Propionobakterium acnes) 15 min bei 121 °C sterilisiert und dann in Petrischalen gegeben. Die Petrischalen wurden mit 2 bis 4 ml der Bakteriensuspensionen versetzt und bei Raumtemperatur getrocknet. Die Filterpapiere wurden mit 20 µl der Testsubstanzen getränkt und auf die Oberfläche der Agarplatten aufgebracht. Die inokulierten Petrischalen wurden 18 bis 24 bei 37 °C inkubiert (die Petrischalen mit Propionibacterium acnes unter anaeroben Bedingungen) und die antimikrobielle Wirksamkeit anschließend durch Bestimmung der Wachstumsinhibierungszone ermittelt. Die Ergebnisse sind in Tabelle 1 zusammengefasst. Angegeben sind ist jeweils der Durchmesser der Inhibierungsflächen in mm.

Test [2] concerns Propionibacterium acnes. Briefly: Agar diffusion method (inhibition zones). Conditions: diameter of inhibition zone; Wilkins-Chalgren agar with 5 wt% sheep blood; 20 µl test substance; 18 to 24 at 37 °C, anaerobic.
Text: as §1, §2
A general note: Agar diffusion results depend on both activity and mobility in agar.

Test [3] relates to Staphylococcus aureus. Briefly: Agar diffusion method (inhibition zones). As to conditions: diameter of inhibition zone; Mueller-Hinton agar; filter paper with 20 µl test substance; 18 to 24 at 37 °C.
Text: as §1, §2

In test [4] the test system is Staphylococcus epidermidis. Briefly: Agar dilution method (MIC determination). As to conditions: lowest concentration with complete inhibition of growth, 37 °C, 18 to 24 h, mean of duplicate determinations.
Text: as §1
(§3) Agar Verdünnungsmethode (MIC-Bestimmung). Wie oben beschrieben wurden verschiedene Agars vorbereitet, mit unterschiedlichen Konzentrationen an Testsubstanzen versetzt, homogenisiert und dann getrocknet. Anschließend erfolgte die Inokulation der Petrischalen mit jeweils 2 µl der Bakteriensuspensionen. […] Es handelt sich jeweils um den Mittelwert von Doppelbestimmungen.
(In general: In agar dilution the substance is mixed into plates at graded concentrations.)

In test [5] the test system is Propionibacterium acnes. Briefly: Agar dilution method (MIC determination). Conditions: lowest concentration with complete inhibition of growth, 37 °C, 18 to 24 h, mean of duplicate determinations.
Text: as §1, §3

In test [6] the test system is Staphylococcus aureus. Briefly: Agar dilution method (MIC determination). Conditions: lowest concentration with complete inhibition of growth, 37 °C, 18 to 24 h, mean of duplicate determinations.
Text: as §1, §3

As usually defined, the MIC is the lowest concentration that inhibits growth of the organism. For the compound `O=C(OOC(=O)c1ccccc1)c1ccccc1` [A1, Benzoylperoxid], the Inhibierungszonen is listed as 5 mm in test [1], 7 mm with Propionibacterium acnes [2] and 5 mm in the test with Staphylococcus aureus [3]. Moreover, the MIC was 1250 µg/mL (≈ 5.16 mM) in test [4] (Staphylococcus epidermidis, read-out: MIC); 1250 µg/mL (≈ 5.16 mM) in the test with Propionibacterium acnes [5] (Cutibacterium acnes, read-out: MIC); over 10000 µg/mL in the test on Staphylococcus aureus [6] (Staphylococcus aureus, read-out: MIC).

In the case of Glyzyrrhetinsäure-Zinksalz [B1], the Inhibierungszonen in test [1] was 5 mm; with Propionibacterium acnes [2] it was 4 mm; in the test with Staphylococcus aureus [3], 5 mm. Further, the MIC in test [4] was 1,25 mg/ml; against Propionibacterium acnes [5] it was 1,25 mg/ml; in the test on Staphylococcus aureus [6] it was over 10000 µg/mL.
